Source: the NIST ThermoML archive (doi:10.1021/je2001649)
± gives the expanded uncertainty stated by the source.

Conditions: Crystal; visual observation

## c1ccc2c(c1)Nc1ccccc1S2 [10H-phenothiazine]
  Normal melting temperature: 183 ± 1 °C
